Legend:
adenine salvage pathway = test: Adenine salvage (formation of ATP) in perfused resting rat plantaris muscle, ribose dose response; type: in vivo, Sprague-Dawley rats; conditions: for salvage of adenine (formation of ATP), Observed: 30 minutes
Procedure: It has been theorized but not objectively shown that ribose, via PRPP synthesis, increases the rate of ATP synthesis via the nucleotide salvage pathway. […] The muscle was perfused with reconstituted blood medium at ˜40 ml/min, providing tissue perfusion of approximately 0.65 ml/min. Varying concentrations of D-ribose were added to the perfusate to bring the concentration to 0.156 mM, 0.5 mM, 1.58 mM, 5.0 mM and 15.0 mM. The muscle was perfused for 30 minutes. A minimum of two rats was used for analysis at each dose of ribose tested. Following perfusion, muscle sections were quickly dissected from the limb and freeze-clamped with aluminum tongs chilled in liquid nitrogen. Muscle sections were lyophilized and reconstituted in distilled water for subsequent-separation of adenine nucleotides by reverse-phase high pressure liquid chromatography. Results are expressed as salvage of adenine (i.e., formation of ATP) in nanomoles salvaged per gram wet weight of muscle per hour (nM/gm/hr).

[1] = Cycle sprint power output in healthy fit subjects (Ribose Athlete Study); type: in vivo, human; conditions: for Mean Power Per Kilogram, Average / Peak Power Per Kilogram, Average / Total Power Per Kilogram, Average: average of sessions 1-6
Procedure: Four healthy, fit subjects in the age range 24 to 26 years of age were tested. The group was selected to be homogeneous regarding fitness level, gender and mean age with no known metabolic, neuronal, endocrine or cardiopulmonary disorders. All were capable of or had experience with cycling. The study protocol included four phases: (1) an initial baseline phase consisting of no exercise session; (2) a loading phase including three days of administration of either D-ribose or placebo (glucose) three times per day; (3) a training phase of three days employing exercise sessions characterized by serial (N=6) bouts of short (10 second) high-intensity cycle sprints at 7% body mass resistance with 50 second rest periods between sprints twice per day (morning and afternoon), and (4) a recovery phase for a period of 48 hours after the final training session. FIG. 1 is a diagram of a single cycle sprint bout. Two subjects were randomly selected for inclusion into the placebo or ribose group. Ribose or glucose was administered orally in a 250 ml iso-osmotic solution containing 10.0 grams of either ribose or placebo three times per day for three days preceding training (loading phase) and for three days during training (training phase). One-half liter isotonic electrolyte solution was given immediately post exercise and again 30 minutes later to avoid dehydration.

ATP = conditions: heart recovering from ischemia, intravenous perfusion; cited from earlier work
[2] = ribose group mean, sprint session 1
[3] = ribose group mean, sprint session 2
[4] = ribose group mean, sprint session 3
[5] = ribose group mean, sprint session 4
[6] = ribose group mean, sprint session 5
[7] = ribose group mean, sprint session 6

SMILES: O=C[C@H](O)[C@H](O)[C@H](O)CO [Ribose, D-ribose]
- adenine salvage relative to zero mM ribose (adenine salvage pathway; 0.158 mM ribose): doubles
- salvage of adenine, Saturation Kinetics with Base (adenine salvage pathway; 0.158 mM ribose): 85.82 nM/gm/hr
- salvage of adenine (formation of ATP), Observed (adenine salvage pathway; 0.158 mM ribose in perfusate): 113.0 nM/gm/hr
- salvage of adenine, Saturation Kinetics with Base (adenine salvage pathway; 0.500 mM ribose): 118.68 nM/gm/hr
- salvage of adenine (formation of ATP), Observed (adenine salvage pathway; 0.500 mM ribose in perfusate): 110.0 nM/gm/hr
- salvage of adenine, Saturation Kinetics with Base (adenine salvage pathway; 1.000 mM ribose): 154.12 nM/gm/hr
- salvage of adenine, Saturation Kinetics with Base (adenine salvage pathway; 1.580 mM ribose): 183.51 nM/gm/hr
- salvage of adenine (formation of ATP), Observed (adenine salvage pathway; 1.580 mM ribose in perfusate): 188.5 nM/gm/hr
- salvage of adenine, Saturation Kinetics with Base (adenine salvage pathway; 2.000 mM ribose): 199.74 nM/gm/hr
- salvage of adenine, Saturation Kinetics with Base (adenine salvage pathway; 2.500 mM ribose): 215.29 nM/gm/hr
- salvage of adenine, Saturation Kinetics with Base (adenine salvage pathway; 3.000 mM ribose): 227.85 nM/gm/hr
- salvage of adenine, Saturation Kinetics with Base (adenine salvage pathway; 5.000 mM ribose): 260.68 nM/gm/hr
- salvage of adenine (formation of ATP), Observed (adenine salvage pathway; 5.000 mM ribose in perfusate): 250.0 nM/gm/hr
- salvage of adenine (formation of ATP), Observed (adenine salvage pathway; 5.000 mM ribose in perfusate, listed as ribose): 250 nM/gm/hr
- salvage of adenine, Saturation Kinetics with Base (adenine salvage pathway; 15.000 mM ribose): 310.37 nM/gm/hr
- salvage of adenine (formation of ATP), Observed (adenine salvage pathway; 15.000 mM ribose in perfusate): 315.5 nM/gm/hr
- Mean Power Per Kilogram, Average ([1]; ribose group mean): 8.2 Watts
- Peak Power Per Kilogram, Average ([1]; ribose group mean): 9.6 Watts
- Total Power Per Kilogram, Average ([1]; ribose group mean): 81.6
- Peak Power Per Kilogram [1, 2]: 8.9 Watts
- Total Power Per Kilogram [1, 2]: 79.3
- Mean Power Per Kilogram ([1]; ribose group mean, sprint session 1, 10.0 grams oral three times per day): 7.8 Watts
- Mean Power Per Kilogram [1, 3]: 8.4 Watts
- Peak Power Per Kilogram [1, 3]: 9.7 Watts
- Total Power Per Kilogram [1, 3]: 83.3
- Mean Power Per Kilogram [1, 4]: 8.5 Watts
- Peak Power Per Kilogram [1, 4]: 10.0 Watts
- Total Power Per Kilogram [1, 4]: 84.2
- Mean Power Per Kilogram [1, 5]: 8.3 Watts
- Peak Power Per Kilogram [1, 5]: 9.9 Watts
- Total Power Per Kilogram [1, 5]: 82.8
- Mean Power Per Kilogram [1, 6]: 8.2 Watts
- Peak Power Per Kilogram [1, 6]: 9.8 Watts
- Total Power Per Kilogram [1, 6]: 81.8
- Mean Power Per Kilogram [1, 7]: 7.8 Watts
- Peak Power Per Kilogram [1, 7]: 9.3 Watts
- Total Power Per Kilogram [1, 7]: 77.9
- Mean Power Per Kilogram, average relative to placebo (100.0%) ([1]; ribose group vs placebo group): 109.0%
- Peak Power Per Kilogram, average relative to placebo (100.0%) ([1]; ribose group vs placebo group): 109.9%
- Total Power Per Kilogram, average relative to placebo (100.0%) ([1]; ribose group vs placebo group): 109.5%
- increase in performance ([1]; ribose vs placebo, Tables II to IV): 9%
- Mean Power Per Kilogram, Average ([1]; subject 2R): 7.5 Watts
- Peak Power Per Kilogram, Average ([1]; subject 2R): 8.8 Watts
- Total Power Per Kilogram, Average ([1]; subject 2R): 75.1
- Mean Power Per Kilogram ([1]; subject 2R, sprint session 1): 6.9 Watts
- Peak Power Per Kilogram ([1]; subject 2R, sprint session 1): 7.9 Watts
- Total Power Per Kilogram ([1]; subject 2R, sprint session 1): 71.9
- Mean Power Per Kilogram ([1]; subject 2R, sprint session 2): 7.5 Watts
- Peak Power Per Kilogram ([1]; subject 2R, sprint session 2): 8.8 Watts
- Total Power Per Kilogram ([1]; subject 2R, sprint session 2): 74.7
- Mean Power Per Kilogram ([1]; subject 2R, sprint session 3): 7.8 Watts
- Peak Power Per Kilogram ([1]; subject 2R, sprint session 3): 9.2 Watts
- Total Power Per Kilogram ([1]; subject 2R, sprint session 3): 77.1
- Mean Power Per Kilogram ([1]; subject 2R, sprint session 4): 7.6 Watts
- Peak Power Per Kilogram ([1]; subject 2R, sprint session 4): 9.0 Watts
- Total Power Per Kilogram ([1]; subject 2R, sprint session 4): 75.6
- Mean Power Per Kilogram ([1]; subject 2R, sprint session 5): 7.9 Watts
- Peak Power Per Kilogram ([1]; subject 2R, sprint session 5): 9.4 Watts
- Total Power Per Kilogram ([1]; subject 2R, sprint session 5): 78.1
- Mean Power Per Kilogram ([1]; subject 2R, sprint session 6): 7.4 Watts
- Peak Power Per Kilogram ([1]; subject 2R, sprint session 6): 8.7 Watts
- Total Power Per Kilogram ([1]; subject 2R, sprint session 6): 73.4
- Mean Power Per Kilogram, Average ([1]; subject 3R): 8.8 Watts
- Peak Power Per Kilogram, Average ([1]; subject 3R): 10.3 Watts
- Total Power Per Kilogram, Average ([1]; subject 3R): 88.0
- Mean Power Per Kilogram ([1]; subject 3R, sprint session 1): 8.7 Watts
- Peak Power Per Kilogram ([1]; subject 3R, sprint session 1): 9.8 Watts
- Total Power Per Kilogram ([1]; subject 3R, sprint session 1): 86.8
- Mean Power Per Kilogram ([1]; subject 3R, sprint session 2): 9.2 Watts
- Peak Power Per Kilogram ([1]; subject 3R, sprint session 2): 10.6 Watts
- Total Power Per Kilogram ([1]; subject 3R, sprint session 2): 91.9
- Mean Power Per Kilogram ([1]; subject 3R, sprint session 3): 9.1 Watts
- Peak Power Per Kilogram ([1]; subject 3R, sprint session 3): 10.7 Watts
- Total Power Per Kilogram ([1]; subject 3R, sprint session 3): 91.3
- Mean Power Per Kilogram ([1]; subject 3R, sprint session 4): 9.0 Watts
- Peak Power Per Kilogram ([1]; subject 3R, sprint session 4): 10.7 Watts
- Total Power Per Kilogram ([1]; subject 3R, sprint session 4): 90.0
- Mean Power Per Kilogram ([1]; subject 3R, sprint session 5): 8.5 Watts
- Peak Power Per Kilogram ([1]; subject 3R, sprint session 5): 10.1 Watts
- Total Power Per Kilogram ([1]; subject 3R, sprint session 5): 85.4
- Mean Power Per Kilogram ([1]; subject 3R, sprint session 6): 8.2 Watts
- Peak Power Per Kilogram ([1]; subject 3R, sprint session 6): 9.9 Watts
- Total Power Per Kilogram ([1]; subject 3R, sprint session 6): 82.5
- recovery of ATP levels (ATP): enhanced

Reference: US6534480B2, “Compositions for increasing energy in vivo” (Bioenergy Inc., priority 1999, dated 2003)
